Measurements taken from ChEMBL document CHEMBL4270509, “Targeting Wnt-driven cancers: Discovery of novel tankyrase inhibitors” (Eur J Med Chem, 2017).

Columns and labels:
[1] = target: T1, Poly [ADP-ribose] polymerase tankyrase-1 (Homo sapiens) (UniProt O95271); assay: Inhibition of TNKS1 (unknown origin) at 0.5 uM by colorimetric method
T1 sequence (whole entry): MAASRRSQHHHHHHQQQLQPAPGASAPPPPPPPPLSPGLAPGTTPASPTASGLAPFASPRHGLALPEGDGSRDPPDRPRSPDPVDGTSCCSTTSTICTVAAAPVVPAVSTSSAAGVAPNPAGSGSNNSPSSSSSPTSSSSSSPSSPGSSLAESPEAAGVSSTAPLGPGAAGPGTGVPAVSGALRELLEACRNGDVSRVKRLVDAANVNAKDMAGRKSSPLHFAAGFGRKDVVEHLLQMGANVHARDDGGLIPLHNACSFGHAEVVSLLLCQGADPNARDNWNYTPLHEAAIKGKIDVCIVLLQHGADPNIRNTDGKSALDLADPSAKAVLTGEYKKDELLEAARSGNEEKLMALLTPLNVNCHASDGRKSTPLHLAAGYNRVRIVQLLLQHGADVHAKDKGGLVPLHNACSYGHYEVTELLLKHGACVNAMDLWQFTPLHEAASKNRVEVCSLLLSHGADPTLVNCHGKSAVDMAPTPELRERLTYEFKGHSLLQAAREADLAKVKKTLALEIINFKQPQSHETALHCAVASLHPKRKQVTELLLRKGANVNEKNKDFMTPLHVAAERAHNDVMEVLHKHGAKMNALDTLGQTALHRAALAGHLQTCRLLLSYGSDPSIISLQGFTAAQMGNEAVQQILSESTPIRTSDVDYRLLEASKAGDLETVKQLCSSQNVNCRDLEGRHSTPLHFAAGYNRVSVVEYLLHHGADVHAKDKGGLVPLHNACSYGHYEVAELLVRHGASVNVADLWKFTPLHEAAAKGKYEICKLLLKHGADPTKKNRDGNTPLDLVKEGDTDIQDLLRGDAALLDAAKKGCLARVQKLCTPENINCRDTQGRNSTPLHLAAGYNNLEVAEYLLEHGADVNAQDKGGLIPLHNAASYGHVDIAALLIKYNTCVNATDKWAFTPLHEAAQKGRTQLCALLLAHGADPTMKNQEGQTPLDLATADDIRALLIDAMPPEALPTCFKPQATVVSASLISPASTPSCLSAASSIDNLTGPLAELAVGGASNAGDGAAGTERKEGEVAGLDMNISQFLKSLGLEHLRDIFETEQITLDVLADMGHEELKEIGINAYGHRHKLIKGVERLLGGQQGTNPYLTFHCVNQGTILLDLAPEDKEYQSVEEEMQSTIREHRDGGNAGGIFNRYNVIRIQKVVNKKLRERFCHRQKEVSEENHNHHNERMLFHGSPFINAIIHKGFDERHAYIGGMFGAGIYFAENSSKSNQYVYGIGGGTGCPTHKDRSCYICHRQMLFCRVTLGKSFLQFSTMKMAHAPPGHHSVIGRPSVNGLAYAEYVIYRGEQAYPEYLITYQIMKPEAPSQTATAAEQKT

MCF7 = assay: Growth inhibition of human MCF7 cells incubated for 24 hrs by MTT assay; format: functional, cell-based; settings: MCF7, 24 h
SW480 = assay: Antitumor activity against human SW480 cells xenografted in CB17/SCID mouse assessed as inhibition of tumor growth at 150 to 300 mg/kg after 3 weeks; format: functional
[2] = Inhibition of Wnt/beta-catenin pathway (unknown origin) expressed in HEK293 cells by Wnt-responsive super-topflash luciferase reporter assay; format: cell-based; settings: Homo sapiens
[3] = target: T2, Poly [ADP-ribose] polymerase tankyrase-1 (Homo sapiens, UniProt O95271); assay: Inhibition of TNKS1 (unknown origin)
T2 sequence (O95271 whole entry): T1 sequence (whole entry)

[4] = target: T2, Poly [ADP-ribose] polymerase tankyrase-1
Description: Inhibition of human TNKS1 (1030 to 1317 residues) by fluorescence based activity assay

Q: For `Cc1c(Cl)cccc1NC(CC(=O)c1ccccc1)C(=O)OCC(=O)c1ccc([N+](=O)[O-])cc1` (centres undefined), which inhibition [1] is on record?
A: 60%

Q: And the IC50 (MCF7)?
A: 5000 nM

Q: With `COc1ccc(-n2c(SCc3nc(-c4ccc(C)cc4)no3)nnc2-c2ccncc2)cc1` as the compound, how does the TGI (SW480) read?
A: 30%

Q: With `N#Cc1ccccc1Cn1c(=O)n(CC2CCC(C(=O)NCc3ccccc3)CC2)c(=O)c2ccccc21` (centres undefined) as the compound, how does the EC50 [2] read?
A: 180 to 2000 nM

Q: For `Cc1cccc2nc(Cn3c(=O)n(CC4CCC(C(=O)NCc5ccccc5)CC4)c(=O)c4ccccc43)cc(=O)n12` (centres undefined), which EC50 [2] is on record?
A: 180 to 2000 nM

Q: With `Cn1c(-c2ccc(Cl)cc2Cl)nc(=O)c2cccnc21` as the compound, how does the IC50 [3] read?
A: 11000 nM

Q: With `O=C(Nc1cccc2cccnc12)c1ccc(C2C(=O)[C@@H]3[C@H](C2=O)[C@@H]2C=C[C@H]3C2)cc1` (some centres undefined) as the compound, how does the EC50 [2] read?
A: 180 to 2000 nM

Q: Which EC50 [2] does the source give for `O=C(NC1CCCC1)c1ccc(Cn2c(=O)c3ccccc3n(Cc3cc(=O)n4ccccc4n3)c2=O)cc1` here?
A: 180 to 2000 nM

Q: Which IC50 [4] does the source give for `CC(C)(C)c1ccc(-c2nc3ccccc3c(=O)[nH]2)cc1` here?
A: 5 nM
